The record followed here is PubChem BioAssay AID493142 (Sanford-Burnham Center for Chemical Genomics, 2011).

Molecules are shown by their SMILES. Values joined by “and” are separate entries in the source; they are usually repeats but may differ in a detail not shown here. Identical values can stand only once. Active and inactive are the calls of the source.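 Rule for the calls: active = mean IC50 below 100 µM; inactive = the rest.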 Bounds are passed on as bounds.

For the experiment, the target named is Intestinal alkaline phosphatase (Alpi) [Mus musculus]. Kind of experiment: mouse IAP inhibition by analogs, SAR follow-up, selectivity assay for human IAP inhibitor project, biochemical, ortholog specificity, luminescence (AID 493142). The conditions noted are these: Purified mouse IAP, CDP-Star luminescence, 30 min.
Broadly, the IC50 is the concentration that inhibits the measured activity by half. With `COc1ccc(C=NNC(=S)Nc2ccccc2[N+](=O)[O-])cc1O`, the IC50 is > 100 µM (inactive).
In the case of `COc1cc(C=NNC(=S)Nc2cccc(S(=O)(=O)N(C)C)c2)cc(OC)c1O` it was > 100 µM (inactive).
In the case of `O=S(=O)(c1ccc(NC(=S)N/N=C/c2ccc(O)c(O)c2)cc1)N1CCOCC1` it was 1.02 µM; in that of `COc1cc(C=NNC(=S)Nc2cccc(C(=O)O)c2)ccc1O`, > 100 µM (inactive); in that of `Cc1ccc(Cl)cc1Nc1nc(-c2ccc(O)c(O)c2)cs1`, 3.85 µM.
The same measure for `COc1ccc(/C=N/N=C2\NC(=O)C(CC(=O)O)S2)c(OC)c1` (stereo unspecified): > 100 µM (inactive); for `Cc1ccc2nc(NNC(=O)c3ccc4c(c3)OCCO4)sc2c1`: 57.7 µM; for `Oc1ccc(Nc2nc(-c3ccc(O)c(O)c3)cs2)cc1`: 1.4 µM.
In the case of `COc1cc(C=NNC(=S)Nc2cccc(S(=O)(=O)N(C)C)c2)ccc1O`, the IC50 was > 100 µM (inactive).
The same measure for `Cc1cccc(Nc2nc(-c3ccc(O)c(C(N)=O)c3)cs2)c1`: > 100 µM (inactive); for `COc1cc(C(=O)NNC(=S)Nc2ccc(S(N)(=O)=O)cc2)cc(OC)c1OC`: > 100 µM (inactive).
In the case of `Cc1ccc(Nc2nc(-c3ccc(O)cc3O)cs2)cc1F` it was > 100 µM (inactive); in that of `COC(=O)/C=C1/S/C(=N/NC(=O)c2ccccc2)NC1=O`, > 100 µM (inactive).
For `Cc1cc(C)cc(Nc2nc(-c3ccc(O)cc3O)cs2)c1`, the IC50 is > 100 µM (inactive).
In the case of `CCOc1cc(C=N/N=C2/NC(=O)C(CC(=O)O)S2)ccc1OCc1ccccc1Cl` (stereo unspecified) it was > 100 µM (inactive); in that of `Cc1ccc2sc(NNC(=O)c3ccc4c(c3)OCCO4)nc2c1C`, > 100 µM (inactive); in that of `COc1ccc(C(=O)NNC(=S)NC2CCCCC2)cc1OC`, 88.1 µM.
The same measure for `Cc1cccc(NC(=S)NNC(=O)c2ccc3c(c2)OCO3)c1`: 58.5 µM; for `O=[N+]([O-])c1ccc(NC(=S)NCCC(c2ccccc2)c2ccccc2)cc1`: > 100 µM (inactive); for `O=[N+]([O-])c1ccccc1NC(=S)N/N=C/c1ccc(O)c(O)c1O`: 22.2 µM.
Regarding `COC(=O)/C=C1/S/C(=N/NC(=O)c2ccc(OC)cc2)NC1=O`, the IC50 is > 100 µM (inactive).
In the case of `Cc1ccc(Nc2nc(-c3ccc(O)c(C(N)=O)c3)cs2)cc1` it was > 100 µM (inactive).
The same measure for `Cc1cccc2sc(NNC(=O)c3ccc4c(c3)OCCO4)nc12`: 76 µM; for `S=C(NCCC(c1ccccc1)c1ccccc1)Nc1ccc(Cl)cc1Cl`: > 100 µM (inactive); for `CC(C)(C)c1ccc(/C=N/N=C2\NC(=O)C(CC(=O)O)S2)cc1` (stereo unspecified): > 100 µM (inactive).
The same measure for `Oc1ccc(-c2csc(Nc3ccc(F)cc3)n2)cc1O`: 5.59 µM; for `Cc1cccc(C)c1NC(=S)N/N=C/c1ccc(O)c(O)c1O`: 58.3 µM; for `O=[N+]([O-])c1ccccc1NC(=S)NN=Cc1ccc(O)c(O)c1`: 6.64 µM.
`CCOc1ccc(Nc2nc(-c3ccc(O)c(O)c3)cs2)cc1`: the IC50 was 6.98 µM.
In the case of `COc1cc(/C=N/N=C2\NC(=O)C(CC(=O)O)S2)cc(OC)c1OC` (stereo unspecified) it was > 100 µM (inactive); in that of `COc1ccc(-c2csc(Nc3cccc4ccccc34)n2)cc1`, > 100 µM (inactive).
As to `COC(=O)/C=C1/S/C(=N/N=Cc2ccc(N(C)C)cc2)NC1=O`, the IC50 was > 100 µM (inactive).
In the case of `COc1ccc(/C=N/N=C2/NC(=O)C(CC(=O)O)S2)cc1OC` (stereo unspecified) it was > 100 µM (inactive).
On to `COC(=O)/C=C1/S/C(=N/NC(=O)c2ccccc2C)NC1=O`, for which the IC50 was > 100 µM (inactive).
The same measure for `CCN(CC)S(=O)(=O)c1ccc(-c2csc(=Nc3cccc4ccccc34)n2C)cc1`: > 100 µM (inactive).
Turning to `COC(=O)C/C=N/N=C1\NC(=O)/C(=C/C(=O)O)S1`, the IC50 was > 100 µM (inactive).
Regarding `Cc1ccc(Nc2nc(-c3ccc(O)c(O)c3)cs2)cc1F`, the IC50 was 9.66 µM.
The same measure for `O=C(O)CC1S/C(=N/N=C/c2ccco2)NC1=O` (stereo unspecified): > 100 µM (inactive); for `CCOc1cc(/C=N/N=C2\NC(=O)C(CC(=O)O)S2)ccc1O` (stereo unspecified): > 100 µM (inactive).
The same measure for `COC(=O)/C=C1\S/C(=N/N=C/c2ccc(Cl)cc2)NC1=O`: > 100 µM (inactive); for `COc1ccc(Cl)cc1Nc1nc(-c2ccc(O)c(O)c2)cs1`: 5.23 µM and 4.64 µM; for `CC(=NNC(=S)Nc1ccccc1)c1ccc2c(c1)OCO2`: > 100 µM (inactive).
For `Cc1cccc(Nc2nc(-c3ccc(O)c(O)c3)cs2)c1`, the IC50 is 7.77 µM.
As for `COc1cc([N+](=O)[O-])ccc1NC(=S)NCCC(c1ccccc1)c1ccccc1`, the IC50 was > 100 µM (inactive).
As to `COc1cc(/C=N/N=C2/SCC(=O)N2c2ccc(O)cc2)ccc1O`, the IC50 was > 100 µM (inactive).
The same measure for `COc1cccc(Nc2nc(-c3ccc(O)cc3)cs2)c1`: > 100 µM (inactive).
In the case of `COC(=O)/C=C1\SC(N=Nc2c(O)[nH]c3ccccc23)=NC1=O` it was > 100 µM (inactive); in that of `CN(C)S(=O)(=O)c1cccc(NC(=S)NN=Cc2ccc(O)c(O)c2O)c1`, 27.6 µM; in that of `Oc1ccc(-c2csc(Nc3cccc4ccccc34)n2)cc1O`, 2.72 µM and 5.26 µM.
The same measure for `COC(=O)/C=C1/S/C(=N/NC(=O)c2ccccc2OC)NC1=O`: > 100 µM (inactive).
Regarding `NS(=O)(=O)c1ccc(Nc2nc(-c3ccc(O)c(O)c3)cs2)cc1`, the IC50 is 2.11 µM.
As for `COc1ccc(NC(=S)NCCC(c2ccccc2)c2ccccc2)cc1`, the IC50 was > 100 µM (inactive).
The same measure for `N#CCCn1cc(/C=N/N=C2/NC(=O)C(CC(=O)O)S2)c(-c2ccc(F)cc2)n1` (stereo unspecified): > 100 µM (inactive); for `COc1ccc(C=NN=C2SC(CC(=O)O)C(=O)N2c2ccc(O)cc2)cc1` (stereo unspecified): > 100 µM (inactive).
In the case of `Cc1ccc(Nc2nc(-c3ccc(O)cc3O)cs2)cc1` it was > 100 µM (inactive).
The same measure for `Cc1ccc(-c2ccc(/C=N/N=C3\NC(=O)C(CC(=O)O)S3)o2)c([N+](=O)[O-])c1` (stereo unspecified): > 100 µM (inactive).
As for `COc1ccc(-c2csc(Nc3cccc4ccccc34)n2)cc1F`, the IC50 is > 100 µM (inactive).
The same measure for `NS(=O)(=O)c1ccc(Nc2nc(-c3ccc(O)cc3O)cs2)cc1`: 49 µM; for `CCc1ccccc1Nc1nc(-c2ccc(O)c(O)c2)cs1`: 5.47 µM and 4.15 µM.
Consider `COc1cc([N+](=O)[O-])ccc1NC(=S)NNC(=O)c1ccc2c(c1)OCO2`, for which the IC50 was 95.4 µM.
The same measure for `COc1ccc(C=Nn2c(=S)n(C)c3ccccc32)cc1OC`: > 100 µM (inactive); for `Cc1cccc(NC(=S)NN=Cc2ccc3c(c2)OCO3)c1`: > 100 µM (inactive); for `Cc1ccc(Nc2nc(-c3ccc(O)cc3O)cs2)cc1C`: > 100 µM (inactive).
The same measure for `COC(=O)/C=C1\S/C(=N/N=C/CC(=O)OC)NC1=O`: > 100 µM (inactive); for `Cn1c(=S)n(N=Cc2ccc3c(c2)OCO3)c2ccccc21`: > 100 µM (inactive); for `CCOc1cc(C=NNC(=S)NC2CCCCC2)ccc1O`: > 100 µM (inactive).
The same measure for `O=S(=O)(c1ccc(NC(=S)N/N=C/c2ccc(O)c(O)c2O)cc1)N1CCOCC1`: 80.8 µM.
For `FC(F)(F)c1cccc(NC(=S)NCCC(c2ccccc2)c2ccccc2)c1`, the IC50 is > 100 µM (inactive).
The same measure for `Cc1cc(=O)oc2cc(NC(=S)NCCC(c3ccccc3)c3ccccc3)ccc12`: > 100 µM (inactive); for `Cc1ccc(Nc2nc(-c3ccc(O)c(O)c3)cs2)cc1`: 6.64 µM; for `O=S(=O)(Nc1ncccn1)c1ccc(NC(=S)NCCC(c2ccccc2)c2ccccc2)cc1`: > 100 µM (inactive).
In the case of `Cc1ccc(C)c(Nc2nc(-c3ccc(O)cc3O)cs2)c1` it was > 100 µM (inactive); in that of `Cc1c(Cl)cccc1Nc1nc(-c2ccc(O)c(O)c2)cs1`, 4.43 µM and 12 µM; in that of `Oc1ccc(-c2csc(Nc3ccccc3)n2)c(O)c1`, > 100 µM (inactive).
The same measure for `COc1cc(C=NN=C2SC(CC(=O)O)C(=O)N2c2ccc(O)cc2)ccc1O` (stereo unspecified): > 100 µM (inactive).
As to `COC(=O)/C=C1/S/C(=N/NC(=O)c2ccc(Cl)cc2Cl)NC1=O`, the IC50 is > 100 µM (inactive).
